How the values were obtained:
[1] = biological target: T1, urate transporter 1 (URAT1) (Homo sapiens, UniProt Q96S37); assay: non-isotopic uric acid uptake inhibition in URAT1-overexpressing HEK293 cells; format: cell-based
T1 construct: gene SLC22A12
T1 sequence (Q96S37 1-553): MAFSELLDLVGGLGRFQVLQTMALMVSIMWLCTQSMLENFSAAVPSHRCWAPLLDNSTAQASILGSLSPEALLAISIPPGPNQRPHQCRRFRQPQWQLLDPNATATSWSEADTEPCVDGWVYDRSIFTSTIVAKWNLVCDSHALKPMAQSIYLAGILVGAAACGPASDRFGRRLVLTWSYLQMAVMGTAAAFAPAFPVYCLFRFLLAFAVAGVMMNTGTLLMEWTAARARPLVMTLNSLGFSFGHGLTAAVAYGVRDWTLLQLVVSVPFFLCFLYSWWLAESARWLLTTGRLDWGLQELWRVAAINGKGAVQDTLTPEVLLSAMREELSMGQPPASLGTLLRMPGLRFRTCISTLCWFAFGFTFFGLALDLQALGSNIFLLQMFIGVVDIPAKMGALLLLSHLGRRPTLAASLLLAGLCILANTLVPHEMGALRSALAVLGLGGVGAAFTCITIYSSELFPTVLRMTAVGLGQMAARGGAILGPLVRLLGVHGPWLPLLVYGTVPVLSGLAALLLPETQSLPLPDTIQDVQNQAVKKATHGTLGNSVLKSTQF

[2] = biological target: T1, urate transporter 1 (URAT1); assay: non-isotopic uric acid uptake inhibition in URAT1-overexpressing HEK293 cells (positive control drug); format: cell-based
[3] = biological target: T2, xanthine oxidoreductase (XOR) (Bos taurus, UniProt P80457)
T2 construct: gene XDH
T2 sequence (P80457 2-1332): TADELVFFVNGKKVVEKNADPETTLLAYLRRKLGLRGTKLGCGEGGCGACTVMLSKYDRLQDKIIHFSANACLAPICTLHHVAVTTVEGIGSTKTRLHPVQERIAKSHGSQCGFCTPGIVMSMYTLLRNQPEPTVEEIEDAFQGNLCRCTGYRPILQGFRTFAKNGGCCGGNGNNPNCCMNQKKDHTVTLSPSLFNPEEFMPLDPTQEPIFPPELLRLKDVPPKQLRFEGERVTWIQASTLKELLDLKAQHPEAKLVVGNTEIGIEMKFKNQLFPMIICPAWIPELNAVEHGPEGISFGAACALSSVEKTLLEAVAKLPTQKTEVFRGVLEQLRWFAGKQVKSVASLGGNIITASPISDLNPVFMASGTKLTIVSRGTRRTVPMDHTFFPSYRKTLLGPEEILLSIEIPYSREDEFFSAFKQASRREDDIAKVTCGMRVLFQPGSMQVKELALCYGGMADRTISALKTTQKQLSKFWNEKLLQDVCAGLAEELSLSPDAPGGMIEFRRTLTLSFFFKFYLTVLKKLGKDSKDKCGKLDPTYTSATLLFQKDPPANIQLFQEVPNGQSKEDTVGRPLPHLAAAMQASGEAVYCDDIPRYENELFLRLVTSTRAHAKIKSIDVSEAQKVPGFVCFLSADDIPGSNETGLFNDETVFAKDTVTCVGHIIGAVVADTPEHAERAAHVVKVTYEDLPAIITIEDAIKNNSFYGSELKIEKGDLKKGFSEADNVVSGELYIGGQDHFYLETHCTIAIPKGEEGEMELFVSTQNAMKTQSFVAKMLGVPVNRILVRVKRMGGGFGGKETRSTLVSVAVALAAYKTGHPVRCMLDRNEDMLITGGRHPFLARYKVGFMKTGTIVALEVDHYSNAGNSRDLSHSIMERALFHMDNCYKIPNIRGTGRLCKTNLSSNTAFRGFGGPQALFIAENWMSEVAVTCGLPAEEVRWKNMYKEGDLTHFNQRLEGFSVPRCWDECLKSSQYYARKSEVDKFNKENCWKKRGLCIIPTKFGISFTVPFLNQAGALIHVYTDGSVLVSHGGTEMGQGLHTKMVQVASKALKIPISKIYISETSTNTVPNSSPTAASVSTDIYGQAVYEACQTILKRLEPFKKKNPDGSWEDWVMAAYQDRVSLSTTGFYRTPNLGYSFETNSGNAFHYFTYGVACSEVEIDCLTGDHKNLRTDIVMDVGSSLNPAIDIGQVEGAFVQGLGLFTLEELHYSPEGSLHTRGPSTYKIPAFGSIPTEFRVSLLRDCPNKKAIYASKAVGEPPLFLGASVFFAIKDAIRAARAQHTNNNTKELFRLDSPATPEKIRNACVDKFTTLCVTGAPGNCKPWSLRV

O=C(O)C1(Sc2ccccc2N2CCOc3ccccc32)CCC1 [CC18002]
IC50 [1]: 1690 nM

O=C(O)C1(Sc2ccnc3ccc(Br)cc23)CCC1 [SHR4640]
IC50 [2]: 130 nM

Cc1nc(-c2ccc(OCC(C)C)c(C#N)c2)sc1C(=O)O [febuxostat]
% inhibition at 0.1 μM [3]: 94.8

— PMC10893275, “A System for Discovering Novel Uricosurics Targeting Urate Transporter 1 Based on In Vitro and In Vivo Modeling” (Pharmaceutics, 2024)
